# Source: US5703056A, “Non-invasive imaging of gene transfer” (priority 1995, dated 1997)
# Like-named read-outs stand apart in the source and are kept apart here.
# How the values were obtained:
# RG2TK+ cells = assay: Ganciclovir sensitivity assay (methyl-[3H]-thymidine accumulation, percent of control); assay type: cell-based, rat; conditions: for IC50: Rattus norvegicus, read-out: ganciclovir ED50
# Method: Transduction of the HSV1-TK gene into RG2 cells. The STK retrovirus was obtained from filtered (0.1 μm) supernatants of gp-STK-A2 producer cell line cultures grown from a 50% confluent monolayer over 24 hours in Dulbecco's high-glucose medium with 10% bovine serum. Transduction of RG2 cells was accomplished by exposing the cell monolayer to the filtrate for 8 hours in the presence of Polybrene™ (8 μg/ml). Following a 24 hour incubation in standard medium, a selection medium containing Geneticin™ disulfate (800 μg/ml) was used to eliminate cells not expressing the neomycin resistance gene. The selection medium was changed daily to remove dead cells. After 7 days, a bulk culture of transduced RG2 cells (RG2TK+) was harvested for further propogation.
# (§1) Sensitivity to ganciclovir and selection of "high" and "low" sensitivity clones. […] Following one day of growth, the culture medium of RG2TK+ and RG2 cells in Costar™ 96-well plates was replaced with ganciclovir™-containing medium (Cytovene™; Syntax Laboratories, Inc.; Palo Alto, Calif.) in the following concentrations: 3, 1, 0.6, 0.3, 0.1, 0.06, 0.03, 0.01, 0,006, 0.003, 0.001, 0.0006, 0.0003, 0.0001, 0.00006 mg/ml and ganciclovir™-free control media. The ganciclovir™-containing and control incubation media were changed daily. […] Radioactivity measured in each ganciclovir™-containing well was expressed as a percent of control (ganciclovir™-free) activity.
# RG2 cells = assay: as above; assay type: cell-based; conditions: Rattus norvegicus; naive RG2 cells; read-out: ganciclovir ED50
# Method: as §1
# HSV1-TK = HSV1-TK (Human alphaherpesvirus 1 strain 17, UniProt P0DTH5); assay: Accumulation of radiolabelled marker substrates in RG2TK+ transduced and RG2 wild-type cells, normalized to TdR; assay type: cell-based, herpes simplex virus
# Sequence of HSV1-TK (P0DTH5 whole entry): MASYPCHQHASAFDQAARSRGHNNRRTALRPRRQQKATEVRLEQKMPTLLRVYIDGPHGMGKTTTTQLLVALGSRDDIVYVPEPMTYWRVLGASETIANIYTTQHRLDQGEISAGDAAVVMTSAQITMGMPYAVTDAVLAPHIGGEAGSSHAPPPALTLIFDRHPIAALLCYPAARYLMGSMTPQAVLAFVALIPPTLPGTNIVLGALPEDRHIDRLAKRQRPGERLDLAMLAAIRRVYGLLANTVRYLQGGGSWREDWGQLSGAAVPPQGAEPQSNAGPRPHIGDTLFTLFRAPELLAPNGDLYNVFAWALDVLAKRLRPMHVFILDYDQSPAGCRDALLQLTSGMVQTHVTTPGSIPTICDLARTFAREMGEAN
# Method: Source of radiolabelled "marker substrates". […] No carrier-added 5-[^123 I]-deoxyuridine (IUdR) was prepared by reacting 2-deoxyuridine (UdR) with carrier-free ^123 I-labelled sodium iodide in an iodogen coated reaction vial.
# Comparison of "marker substrates" for identifying HSV1-tk gene expression in tissue culture. […] Each of these substrates were developed for or used as an anti-viral agent; they are phosphorylated by HSV1-TK and can be radiolabelled for noninvasive imaging.
# Wild-type (nontransduced) RG2 cells were studied as a reference control. […] The cells were dislodged from the Petri dishes with a soft scraper, poured into 15 ml conical tubes, centrifuged and the medium aspirated. The tubes were cut to facilitate removing cells; they were blotted, placed in pre-weighed vials, weighed and prepared for counting. Samples were assayed for ^3 H- and ^14 C-radioactivity using a Packard B1600 TriCarb beta spectrometer using dual-channel and external standard splash and quench correction techniques. The medium was also counted before and following incubation. The data was expressed as a harvested cell-to-medium concentration ratio (dpm/g cells.div.dpm/ml medium).
# Data analysis. […] These two related measures are useful to evaluate the intensity of the images (e.g., high "sensitivity") and the ability to differentiate between HSV1-TK and endogenous-TK in the images (e.g., high "selectivity"). The "selectivity" measure is not interpreted as a relative sensitivity (i.e., a value of 1 indicating equal sensitivity) of the substrate to HSV1-TK vs. endogenous-TK. […] They are intended for the direct comparison of substrates only.
compound,measurement,setting,value
"Nc1nc2c(ncn2COC(CO)CO)c(=O)[nH]1 [ganciclovir, 9-(1,3-dihydroxy-2-propoxymethyl)-guanine]",fold more sensitive to ganciclovir compared to bulk RG2TK+ cells,"RG2TK+ cells; ""high"" sensitivity RG2TK+ clones (clone #16) vs bulk RG2TK+",5 fold
same,fold less sensitive to ganciclovir compared to bulk RG2TK+ cells,"RG2TK+ cells; ""low"" sensitivity RG2TK+ clones vs bulk RG2TK+",roughly 30 fold
same,IC50,"RG2TK+ cells; ""high-sensitivity"" RG2TK+ clone #16",~0.2 µg/mL
same,IC50,"RG2TK+ cells; ""low-sensitivity"" RG2TK+ clone #32",~30 µg/mL
same,IC50,RG2TK+ cells; bulk culture of transduced RG2TK+ cells,1 µg/mL
same,fold more sensitive to ganciclovir than RG2 cells,RG2TK+ cells; bulk RG2TK+ cells vs wild-type RG2 cells,approximately 200 fold
same,fold more sensitive to ganciclovir than wild-type RG2 cells,RG2TK+ cells; high-sensitivity RG2TK+ clone #16 vs wild-type RG2,approximately 1000 fold
same,IC50,RG2 cells,200 µg/mL
same,Selectivity+ Sensitivity*/(substrate/TdR) for RG2,HSV1-TK; Data from FIG. 5,0.143
same,Sensitivity* Δ(substrate/TdR)/Δ(HSV1TK mRNA/S28 RNA IOD),HSV1-TK; Data from FIG. 5,0.0004
same,accumulation of ganciclovir by RG2TK+ cells compared to that of FIAU,HSV1-TK; RG2TK+ cells,less than 5%
same,accumulation of ganciclovir by RG2TK+ cells compared to that of IUdR,HSV1-TK; RG2TK+ cells,< 3%
same,accumulation in bulk RG2TK+ cells relative to wild-type RG2 cells,"HSV1-TK; normalized to TdR, FIGS. 4 and 5B",5.6 fold
